The source of these data is US9693997B2, “Antiviral compounds” (priority 2013, dated 2017).

The subject of experiment [1] is Pseudotyped HCV GT1b particles (HCVpp), entry into Huh7-high CD81 cells. Put plainly: microbe, parasite or virus in culture. Type of experiment: cell-based, HCV GT1b Con1 strain.
The test system of experiment [2] is pseudotyped VSV G particles (VSVpp) in Huh7-high CD81 cells. Put plainly: microbe, parasite or virus in culture. Type of experiment: cell-based, vesicular stomatitis virus.
Setting [3] is: Hepatitis C virus, GT1B, 72 h, read-out: HCVpp GT-1b (EC50, μM).
The mark [4] stands for this setting: Vesicular stomatitis virus, 72 h, read-out: VSVpp (EC50, μM).

Counter-ions that a name gives are not always drawn. Like-named read-outs stand apart in the source and are kept apart here.

For the compound “4′-(5-amino-1H-1,2,4-triazol-3-ylamino)-2′-chloro-3-methoxy-N-(piperidin-4-yl)-6′-(trifluoromethyl)biphenyl-4-sulfonamide hydrochloride [Compound 178]”, the values for the EC50 in experiment [1] (read-out: HCVpp GT-1b (EC50)) and in experiment [2] (read-out: VSVpp (EC50)) were 0.023 µM and greater than 10 µM, respectively. Consider `Nc1nc(Nc2cc(Cl)c(-c3ccc(OC[C@H]4CCCN4)cc3)c(C(F)(F)F)c2)n[nH]1` (stereo in doubt) [Compound 279, N*3*-[6-Chloro-4′-(pyrrolidin-2-ylmethoxy)-2-trifluoromethyl-biphenyl-4-yl]-1H-[1,2,4]triazole-3,5-diamine], for which the results for the EC50 in experiment [1] (setting [3]) and in experiment [2] (setting [4]) were 0.193 µM and 37 µM, respectively.

In the case of `CC(C)(C)OC(=O)[C@@H]1CCCN1S(=O)(=O)c1ccc(-c2c(Cl)cc(Nc3n[nH]c(N)n3)cc2C(F)(F)F)cc1` [Compound 3, (S)-1-[4′-(5-Amino-1H-[1,2,4]triazol-3-ylamino)-2′-chloro-6′-trifluoromethyl-biphenyl-4-sulfonyl]-pyrrolidine-2-carboxylic acid tert-butyl ester], the figures for the EC50 in experiment [1] (setting [3]) and in experiment [2] (setting [4]) were 0.005 µM and 4.37 µM, respectively. For `Nc1nc(Nc2cc(Cl)c(-c3ccc(S(=O)(=O)C4CCN(CCC(F)(F)F)CC4)cc3)c(C(F)(F)F)c2)n[nH]1` [Compound 4, N*3*-{2-Chloro-6-trifluoromethyl-4′-[1-(3,3,3-trifluoro-propyl)-piperidine-4-sulfonyl]-biphenyl-4-yl}-1H-[1,2,4]triazole-3,5-diamine; hydrochloride] the same measures were 0.005 µM and greater than 10 µM. With `CC(C)(C)CCN1CCC(S(=O)(=O)c2ccc(-c3c(Cl)cc(Nc4n[nH]c(N)n4)cc3C(F)(F)F)cc2)CC1` [Compound 5, N*3*-{2-Chloro-4′-[1-(3,3-dimethyl-butyl)-piperidine-4-sulfonyl]-6-trifluoromethyl-biphenyl-4-yl}-1H-[1,2,4]triazole-3,5-diamine; hydrochloride], the EC50 (as a rule, the midpoint of the concentration-response curve) is 0.005 µM in experiment [1] (setting [3]) and greater than 10 µM in experiment [2] (setting [4]). For `CC(C)(C)OC(=O)N1CCCC(S(=O)(=O)c2ccc(-c3c(Cl)cc(Nc4n[nH]c(N)n4)cc3C(F)(F)F)cc2)C1` (centres unmarked) [Compound 6, 3-[4′-(5-Amino-1H-[1,2,4]triazol-3-ylamino)-2′-chloro-6′-trifluoromethyl-biphenyl-4-sulfonyl]-piperidine-1-carboxylic acid tert-butyl ester] the same measures were 0.008 µM and 2.56 µM. With `CC(C)(C)OC(=O)N1CCC(CS(=O)(=O)c2ccc(-c3c(Cl)cc(Nc4n[nH]c(N)n4)cc3C(F)(F)F)cc2)CC1` [Compound 7, 4-[4′-(5-Amino-1H-[1,2,4]triazol-3-ylamino)-2′-chloro-6′-trifluoromethyl-biphenyl-4-sulfonylmethyl]-piperidine-1-carboxylic acid tert-butyl ester], the EC50 came to 0.017 µM in experiment [1] (setting [3]) and 3.09 µM in experiment [2] (setting [4]). With `CC(C)(C)NC(=O)c1ccc(-c2c(Cl)cc(Nc3n[nH]c(N)n3)cc2Cl)cc1` [Compound 8, 4′-(5-Amino-1H-[1,2,4]triazol-3-ylamino)-2′,6′-dichloro-biphenyl-4-carboxylic acid tert-butylamide], the 50% effective concentration (EC50) in experiment [1] (setting [3]) is 0.013 µM; in experiment [2] (setting [4]) it was greater than 10 µM.

Consider `CCCCC(=O)Nc1ccc(-c2c(Cl)cc(Nc3n[nH]c(N)n3)cc2Cl)cc1` [Compound 9, Pentanoic acid [4′-(5-amino-1H-[1,2,4]triazol-3-ylamino)-2′,6′-dichloro-biphenyl-4-yl]-amide], for which the EC50 in experiment [1] (setting [3]) was determined as 0.014 µM; in experiment [2] (setting [4]) it was 5.05 µM. As to `CC(C)(C)N1Cc2ccc(-c3c(Cl)cc(Nc4n[nH]c(N)n4)cc3C(F)(F)F)cc2S1(=O)=O` [Compound 10, N*3*-[4-(2-tert-Butyl-1,1-dioxo-2,3-dihydro-1H-1lambda*6*-benzo[d]isothiazol-6-yl)-3-chloro-5-trifluoromethyl-phenyl]-1H-[1,2,4]triazole-3,5-diamine], the EC50 is 0.015 µM in experiment [1] (setting [3]) and greater than 10 µM in experiment [2] (setting [4]).

For `Nc1nc(Nc2cc(Cl)c(-c3ccc(S(=O)(=O)C4CCCN(CCC(F)(F)F)C4)cc3)c(C(F)(F)F)c2)n[nH]1` (centres unmarked) [Compound 11, N*3*-{2-Chloro-6-trifluoromethyl-4′-[1-(3,3,3-trifluoro-propyl)-piperidine-3-sulfonyl]-biphenyl-4-yl}-1H-[1,2,4]triazole-3,5-diamine; hydrochloride], the EC50 in experiment [1] (setting [3]) amounted to 0.017 µM; in experiment [2] (setting [4]), 6.78 µM. For the compound `C[C@H](NS(C)(=O)=O)c1ccc(-c2c(Cl)cc(Nc3n[nH]c(N)n3)cc2C(F)(F)F)cc1` [Compound 13, N—{(S)-1-[4′-(5-Amino-1H-[1,2,4]triazol-3-ylamino)-2′-chloro-6′-trifluoromethyl-biphenyl-4-yl]-ethyl}-methanesulfonamide], the EC50 was 0.027 µM in experiment [1] (setting [3]) and 21 µM in experiment [2] (setting [4]). As for `CS(=O)(=O)c1ccc(-c2c(Cl)cc(Nc3n[nH]c(N)n3)cc2Cl)cc1C(F)(F)F` [Compound 14, N*3*-(2,6-Dichloro-4′-methanesulfonyl-3′-trifluoromethyl-biphenyl-4-yl)-1H-[1,2,4]triazole-3,5-diamine], the EC50 in experiment [1] (setting [3]) is 0.052 µM; in experiment [2] (setting [4]), 0.12 µM. In the case of `CS(=O)(=O)n1ccc2c(-c3c(Cl)cc(Nc4n[nH]c(N)n4)cc3Cl)cccc21` [Compound 15, N*3*-[3,5-Dichloro-4-(1-methanesulfonyl-1H-indol-4-yl)-phenyl]-1H-[1,2,4]triazole-3,5-diamine], the EC50 worked out at 0.05 µM in experiment [1] (setting [3]) and 0.23 µM in experiment [2] (setting [4]).

For the compound `CC(C)(C)OC(=O)N1CCN(S(=O)(=O)c2ccc(-c3c(Cl)cc(Nc4n[nH]c(N)n4)cc3C(F)(F)F)cc2)CC1` [Compound 16, 4-[4′-(5-Amino-1H-[1,2,4]triazol-3-ylamino)-2′-chloro-6′-trifluoromethyl-biphenyl-4-sulfonyl]-piperazine-1-carboxylic acid tert-butyl ester], the EC50 was 0.03 µM in experiment [1] (setting [3]) and greater than 10 µM in experiment [2] (setting [4]). Turning to `CC(C)(C)CCN1CCCC(S(=O)(=O)c2ccc(-c3c(Cl)cc(Nc4n[nH]c(N)n4)cc3C(F)(F)F)cc2)C1` (centres unmarked) [Compound 17, N*3*-{2-Chloro-4′-[1-(3,3-dimethyl-butyl)-piperidine-3-sulfonyl]-6-trifluoromethyl-biphenyl-4-yl}-1H-[1,2,4]triazole-3,5-diamine; hydrochloride], the results for the EC50 in experiment [1] (setting [3]) and in experiment [2] (setting [4]) were 0.043 µM and 4.9 µM, respectively. For `Cc1ccc(-c2c(Cl)cc(Nc3n[nH]c(N)n3)cc2C(F)(F)F)cc1S(=O)(=O)NC(C)(C)C` [Compound 18, 4′-(5-Amino-1H-[1,2,4]triazol-3-ylamino)-2′-chloro-4-methyl-6′-trifluoromethyl-biphenyl-3-sulfonic acid tert-butylamide] the same measures were 0.032 µM and 3.47 µM. Regarding `COc1ccc(-c2c(Cl)cc(Nc3n[nH]c(N)n3)cc2C(F)(F)F)cc1S(=O)(=O)C(C)C` [Compound 19, N*3*-[2-Chloro-4′-methoxy-3′-(propane-2-sulfonyl)-6-trifluoromethyl-biphenyl-4-yl]-1H-[1,2,4]triazole-3,5-diamine], the EC50 in experiment [1] (setting [3]) was 0.049 µM; in experiment [2] (setting [4]) it was greater than 10 µM. Consider `Nc1nc(Nc2cc(Cl)c(-c3ccc(S(=O)(=O)C4CCNCC4)cc3)c(C(F)(F)F)c2)n[nH]1` [Compound 20, N3-(2-chloro-4′-(piperidin-4-ylsulfonyl)-6-(trifluoromethyl)biphenyl-4-yl)-1H-1,2,4-triazole-3,5-diamine hydrochloride], for which the EC50 in experiment [1] (setting [3]) was found to be 0.053 µM; in experiment [2] (setting [4]) it was 3.46 µM. With `CC(C)(C)OC(=O)N1CCC(Oc2cccc(-c3c(Cl)cc(Nc4n[nH]c(N)n4)cc3C(F)(F)F)c2)CC1` [Compound 21, 4-[4′-(5-Amino-1H-[1,2,4]triazol-3-ylamino)-2′-chloro-6′-trifluoromethyl-biphenyl-3-yloxy]-piperidine-1-carboxylic acid tert-butyl ester], the EC50 in experiment [1] (setting [3]) was 0.039 µM; in experiment [2] (setting [4]), greater than 10 µM. For `CN1CCN(S(=O)(=O)c2ccc(-c3c(Cl)cc(Nc4n[nH]c(N)n4)cc3C(F)(F)F)cc2)CC1` [Compound 22, N*3*-[2-Chloro-4′-(4-methyl-piperazine-1-sulfonyl)-6-trifluoromethyl-biphenyl-4-yl]-1H-[1,2,4]triazole-3,5-diamine] the same measures were 0.053 µM and 13.5 µM. For `C[C@@H](NS(C)(=O)=O)c1ccc(-c2c(Cl)cc(Nc3n[nH]c(N)n3)cc2C(F)(F)F)cc1` [Compound 24, N—{(R)-1-[4′-(5-Amino-1H-[1,2,4]triazol-3-ylamino)-2′-chloro-6′-trifluoromethyl-biphenyl-4-yl]-ethyl}-methanesulfonamide] the same measures were 0.058 µM and greater than 10 µM. As to `COc1ccc(-c2c(Cl)cc(Nc3n[nH]c(N)n3)cc2C(F)(F)F)cc1S(=O)(=O)NC1CCOCC1` [Compound 168, 4′-(5-amino-1H-1,2,4-triazol-3-ylamino)-2′-chloro-4-methoxy-N-(tetrahydro-2H-pyran-4-yl)-6′-(trifluoromethyl)biphenyl-3-sulfonamide], the EC50 in experiment [1] (setting [3]) stood at 0.011 µM. Turning to `COc1ccc(-c2c(Cl)cc(Nc3n[nH]c(N)n3)cc2C(F)(F)F)cc1S(N)(=O)=O` [Compound 180, 4′-(5-amino-1H-1,2,4-triazol-3-ylamino)-2′-chloro-4-methoxy-6′-(trifluoromethyl)biphenyl-3-sulfonamide], in experiment [1] (setting [3]), the EC50 turned out to be 0.036 µM. In the case of `COc1ccc(-c2c(Cl)cc(Nc3n[nH]c(N)n3)cc2C(F)(F)F)cc1S(=O)(=O)NC1CCNCC1` [Compound 222, 4′-(5-Amino-1H-[1,2,4]triazol-3-ylamino)-6′-chloro-4-methoxy-2′-trifluoromethyl-biphenyl-3-sulfonic acid piperidin-4-ylamide; compound with trifluoro-acetic acid], the 50% effective concentration (EC50) in experiment [1] (read-out: HCVpp GT-1b (EC50)) amounted to 0.014 µM.
